Test results reported in patent US20080207455A1, “5,6-Dialkyl-7-Aminoazolopyrimidines, Their Preparation and Their Use for Controlling Harmful Fungi, and Compositions Comprising These Compounds” (BASF AKTINGESELLSCHAFT, priority 2005, published 2008).

Experiments:
[1] = system: Plasmopara viticola; assay: Activity against peronospora of grapevines caused by Plasmopara viticola (protective leaf spray, potted vines); assay type: in vivo; conditions: comparison with the closest prior art, concentration not restated in the table, untreated 100
Procedure: The mixture was then made up to 100 ml with water. This stock solution was diluted with the solvent/emulsifier/water mixture described to the concentration of active compounds stated below. Use example 1—Activity against peronospora of grapevines caused by Plasmopara viticola Leaves of potted vines were sprayed to runoff point with an aqueous suspension comprising 250 ppm of active compound. The next day, the undersides of the leaves were inoculated with an aqueous sporangia suspension of Plasmopara viticola. The vines were then initially placed in a water vapor-saturated chamber at 24° C. for 48 hours and then in a greenhouse at temperatures between 20 and 30° C. for five days. After this time, the plants were once more placed in a humid chamber for 16 hours to accelerate the eruption of sporangiophores. The extent of the development of the infection on the undersides of the leaves was then determined visually.

SMILES	Infection in % [1] [%]	melting point [°C]
CCCCCCCCCCc1c(C)nc2cc(C)nn2c1N [Compound 28, reference compound]	40	–
CCc1nc2nc(C)nn2c(N)c1CCC(C)CC(C)(C)C (stereo not shown) [Compound I-1, 5-ethyl-2-methyl-6-(3,5,5-trimethylhexyl)-[1,2,4]triazolo[1,5-a]pyrimidin-7-ylamine]	–	180 to 181
CCCCCCCCCCc1c(CC)nc2cc(C)nn2c1N [Compound I-4]	3	130 to 131
